Numbered stars: 1 amine (or outer) side, 2 acyl side, 3 side chain; on linkers, the order of the positions; unused ones are H or OH. Bridge positions count the residues as written; N and C are the ends. Square brackets hold non-standard residues; d marks the D form. Peptide text beside a SMILES is read from it. Tartaroyl(2R,3R-(OAc)2) = CC(=O)O[C@@H](C(=O)[*:1])[C@@H](OC(C)=O)C(=O)[*:2]; Phe(4-COOH) = N[C@@H](Cc1ccc(C(=O)O)cc1)C(=O)O; Bip = N[C@@H](Cc1ccc(-c2ccccc2)cc1)C(=O)O; dBip = N[C@H](Cc1ccc(-c2ccccc2)cc1)C(=O)O; dPhe(4-NH2) = Nc1ccc(C[C@@H](N)C(=O)O)cc1; dPhe(4-Br) = N[C@H](Cc1ccc(Br)cc1)C(=O)O; Phe(4-NH2) = Nc1ccc(C[C@H](N)C(=O)O)cc1; d(hPhe) = N[C@H](CCc1ccccc1)C(=O)O; hPhe = N[C@@H](CCc1ccccc1)C(=O)O; 3Pal = N[C@@H](Cc1cccnc1)C(=O)O; 2Thi = N[C@@H](Cc1cccs1)C(=O)O; d2Thi = N[C@H](Cc1cccs1)C(=O)O; Suc = O=C(CCC(=O)[*:2])[*:1]; GABA = NCCCC(=O)O; βAla = NCCC(=O)O

T1 sequence (P01375 77-233 limits assumed, species assumed): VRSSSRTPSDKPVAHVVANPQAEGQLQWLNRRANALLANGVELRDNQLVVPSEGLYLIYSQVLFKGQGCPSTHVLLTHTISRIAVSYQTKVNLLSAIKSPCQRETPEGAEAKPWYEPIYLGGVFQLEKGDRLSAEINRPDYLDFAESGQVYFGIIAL

This test has as its target T1, TNFα / TNFα receptor (TNFα R1/Fc) (Homo sapiens, UniProt P01375).
T1 construct: purchased R&D Systems
Kind of test: Inhibition of binding of TNFα to the TNFα receptor (plate ELISA competition). The conditions noted are these: Table 2; read-out: Activity (IC50, inhibition of TNFα binding to TNFα R1/Fc). The gist of the method: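 Plates were coated with TNFα at 15 nM. Test compound and 8.33 nM receptor-Fc (PBST, 2% DMSO) were first mixed in solution for 30 min at room temperature, then transferred to the plates for another 30 min. Competition was read by absorbance at 450 nm after HRP anti-human IgG Fc detection with TMB.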
`CC(=O)N[C@@H]1CC(=O)N[C@H](Cc2cccs2)C(=O)N[C@@H](Cc2ccc(-c3ccccc3)cc2)C(=O)N[C@H](Cc2ccccc2)C(=O)N[C@H](C(=O)O)Cc2ccc(cc2)NC1=O` [Compound 378]: the IC50 lay in the range of 10 to 30 µM. The figure for `O=C(O)CNC(=O)[C@@H]1Cc2ccc(cc2)OCC(=O)N[C@@H](Cc2cccs2)C(=O)N[C@H](Cc2ccc(-c3ccccc3)cc2)C(=O)N[C@@H](Cc2ccccc2)C(=O)N1` [Compound 383] is below 10 µM; for `O=C1COc2ccc(cc2)C[C@@H](C(=O)N[C@@H](Cc2ccc(O)cc2)C(=O)O)NC(=O)[C@H](Cc2ccccc2)NC(=O)[C@@H](Cc2ccc(-c3ccccc3)cc2)NC(=O)[C@H](Cc2cccs2)N1` [Compound 387] it is above 100 µM. On to `CC(C)(C)OC(=O)C[C@H](NC(=O)[C@@H]1Cc2ccc(cc2)OCC(=O)N[C@@H](Cc2cccs2)C(=O)N[C@H](Cc2ccc(-c3ccccc3)cc2)C(=O)N[C@@H](Cc2ccccc2)C(=O)N1)C(=O)O` [Compound 389], for which the IC50 is above 100 µM. The figure for `O=C(O)CN(Cc1ccccc1)C(=O)[C@@H]1Cc2ccc(cc2)OCC(=O)N[C@@H](Cc2cccs2)C(=O)N[C@H](Cc2ccc(-c3ccccc3)cc2)C(=O)N[C@@H](Cc2ccccc2)C(=O)N1` [Compound 392] is 10 to 30 µM; for `CC(=O)O[C@H]1C(=O)Nc2ccc(cc2)C[C@H](C(=O)N[C@@H](Cc2ccccc2)C(=O)O)NC(=O)[C@@H](Cc2ccccc2)NC(=O)[C@H](Cc2ccc(-c3ccccc3)cc2)NC(=O)[C@@H](Cc2cccs2)NC(=O)[C@@H]1OC(C)=O` [Compound 394] ([d2Thi][Bip][dF][dPhe(4-NH2)]F-OH; linker N-4 via Tartaroyl(2R,3R-(OAc)2)) it is below 10 µM. The result for `O=C1COc2ccc(cc2)C[C@@H](C(=O)O)NC(=O)[C@H](Cc2ccccc2)NC(=O)[C@@H](Cc2ccc(C(F)(F)F)cc2)NC(=O)[C@H](Cc2cccs2)N1` [Compound 397] reads above 100 µM; that for `O=C1COc2ccc(cc2)C[C@@H](C(=O)O)NC(=O)[C@H](Cc2ccccc2)NC(=O)[C@H](Cc2ccc(F)cc2)NC(=O)[C@H](Cc2cccs2)N1` [Compound 398], below 10 µM. The result for `O=C1COc2ccc(cc2)C[C@@H](C(=O)O)NC(=O)[C@H](Cc2ccccc2)NC(=O)[C@@H](Cc2ccc(Br)cc2)NC(=O)[C@H](Cc2cccs2)N1` [Compound 399] reads above 100 µM. As to `O=C1COc2ccc(cc2)C[C@@H](C(=O)O)NC(=O)[C@H](Cc2ccccc2)NC(=O)[C@H](Cc2cccc(C(F)(F)F)c2)NC(=O)[C@H](Cc2cccs2)N1` [Compound 400], the IC50 was below 10 µM. The result for `O=C(O)CCNC(=O)[C@@H]1Cc2ccc(cc2)NC(=O)[C@H](O)[C@@H](O)C(=O)N[C@H](Cc2cccs2)C(=O)N[C@@H](Cc2ccc(-c3ccccc3)cc2)C(=O)N[C@H](CCc2ccccc2)C(=O)N1` [Compound 401] reads below 10 µM; that for `O=C(O)CCCNC(=O)[C@@H]1Cc2ccc(cc2)NC(=O)[C@H](O)[C@@H](O)C(=O)N[C@H](Cc2cccs2)C(=O)N[C@@H](Cc2ccc(-c3ccccc3)cc2)C(=O)N[C@H](CCc2ccccc2)C(=O)N1` [Compound 402], 10 to 30 µM; that for `O=C1CCC(=O)N[C@H](CCc2ccccc2)C(=O)N[C@@H](Cc2ccc(-c3ccccc3)cc2)C(=O)N[C@H](Cc2ccccc2)C(=O)N[C@H](C(=O)N[C@@H](Cc2cccnc2)C(=O)O)Cc2ccc(cc2)N1` [Compound 403] ([d(hPhe)][Bip][dF][Phe(4-NH2)][3Pal]-OH; linker N-4 via Suc), above 100 µM. Turning to `O=C1COc2ccc(cc2)C[C@@H](C(=O)NCC2(C(=O)O)CC2)NC(=O)[C@@H](CCc2ccccc2)NC(=O)[C@H](Cc2ccc(-c3ccccc3)cc2)NC(=O)[C@@H](Cc2cccs2)N1` [Compound 404], the IC50 is below 10 µM. For `O=C(O)[C@H](Cc1cccnc1)NC(=O)[C@@H]1Cc2ccc(cc2)NC(=O)[C@H](O)[C@@H](O)C(=O)N[C@H](Cc2cccs2)C(=O)N[C@@H](Cc2ccc(-c3ccccc3)cc2)C(=O)N[C@H](CCc2ccccc2)C(=O)N1` [Compound 405], the IC50 was above 100 µM.

In the case of `COc1ccc(C[C@@H]2NC(=O)[C@H](Cc3cccs3)NC(=O)COc3ccc(cc3)C[C@@H](C(=O)O)NC(=O)[C@H](Cc3ccccc3)NC2=O)cc1OC` [Compound 406], the IC50 was above 100 µM.

Take `COc1cccc(C[C@H]2NC(=O)[C@H](Cc3cccs3)NC(=O)COc3ccc(cc3)C[C@@H](C(=O)O)NC(=O)[C@H](Cc3ccccc3)NC2=O)c1` [Compound 407]: the IC50 is above 100 µM. The result for `COc1cccc(C[C@@H]2NC(=O)[C@H](Cc3cccs3)NC(=O)COc3ccc(cc3)C[C@@H](C(=O)O)NC(=O)[C@H](Cc3ccccc3)NC2=O)c1` [Compound 408] reads above 100 µM; that for `CC(=O)O[C@H]1C(=O)Nc2ccc(cc2)C[C@H](C(=O)N[C@@H](Cc2ccccc2)C(=O)O)NC(=O)[C@@H](CCc2ccccc2)NC(=O)[C@H](Cc2ccc(-c3ccccc3)cc2)NC(=O)[C@@H](Cc2cccs2)NC(=O)[C@@H]1OC(C)=O` [Compound 409] ([d2Thi][Bip][d(hPhe)][dPhe(4-NH2)]F-OH; linker N-4 via Tartaroyl(2R,3R-(OAc)2)), below 10 µM; that for `CC(=O)O[C@H]1C(=O)Nc2ccc(cc2)C[C@H](C(=O)N[C@@H](Cc2ccccc2)C(=O)O)NC(=O)[C@H](CCc2ccccc2)NC(=O)[C@@H](Cc2ccc(-c3ccccc3)cc2)NC(=O)[C@H](Cc2cccs2)NC(=O)[C@@H]1OC(C)=O` [Compound 411] ([2Thi][dBip][hPhe][dPhe(4-NH2)]F-OH; linker N-4 via Tartaroyl(2R,3R-(OAc)2)), above 100 µM. Turning to `CC(=O)O[C@H]1C(=O)Nc2ccc(cc2)C[C@@H](C(=O)N[C@@H](Cc2ccccc2)C(=O)O)NC(=O)[C@H](CCc2ccccc2)NC(=O)[C@@H](Cc2ccc(-c3ccccc3)cc2)NC(=O)[C@H](Cc2cccs2)NC(=O)[C@@H]1OC(C)=O` [Compound 412] ([2Thi][dBip][hPhe][Phe(4-NH2)]F-OH; linker N-4 via Tartaroyl(2R,3R-(OAc)2)), the IC50 is below 10 µM.

On to `CC(=O)O[C@H]1C(=O)Nc2ccc(cc2)C[C@H](C(=O)N[C@@H](Cc2ccccc2)C(=O)O)NC(=O)[C@H](Cc2ccccc2)NC(=O)[C@@H](Cc2ccc(-c3ccccc3)cc2)NC(=O)[C@H](Cc2cccs2)NC(=O)[C@@H]1OC(C)=O` [Compound 413] ([2Thi][dBip]F[dPhe(4-NH2)]F-OH; linker N-4 via Tartaroyl(2R,3R-(OAc)2)), for which the IC50 is above 100 µM. The result for `CC(=O)O[C@H]1C(=O)Nc2ccc(cc2)C[C@@H](C(=O)N[C@@H](Cc2ccccc2)C(=O)O)NC(=O)[C@H](Cc2ccccc2)NC(=O)[C@@H](Cc2ccc(-c3ccccc3)cc2)NC(=O)[C@H](Cc2cccs2)NC(=O)[C@@H]1OC(C)=O` [Compound 414] ([2Thi][dBip]F[Phe(4-NH2)]F-OH; linker N-4 via Tartaroyl(2R,3R-(OAc)2)) reads above 100 µM. The figure for `CC(=O)O[C@H]1C(=O)Nc2ccc(cc2)C[C@H](C(=O)N[C@@H](Cc2ccccc2)C(=O)O)NC(=O)[C@H](CCc2ccccc2)NC(=O)[C@@H](Cc2ccc(Br)cc2)NC(=O)[C@H](Cc2cccs2)NC(=O)[C@@H]1OC(C)=O` [Compound 415] ([2Thi][dPhe(4-Br)][hPhe][dPhe(4-NH2)]F-OH; linker N-4 via Tartaroyl(2R,3R-(OAc)2)) is above 100 µM; for `CC(=O)O[C@H]1C(=O)Nc2ccc(cc2)C[C@@H](C(=O)N[C@@H](Cc2ccccc2)C(=O)O)NC(=O)[C@H](CCc2ccccc2)NC(=O)[C@@H](Cc2ccc(Br)cc2)NC(=O)[C@H](Cc2cccs2)NC(=O)[C@@H]1OC(C)=O` [Compound 416] ([2Thi][dPhe(4-Br)][hPhe][Phe(4-NH2)]F-OH; linker N-4 via Tartaroyl(2R,3R-(OAc)2)) it is above 100 µM. With `CC(=O)O[C@H]1C(=O)Nc2ccc(cc2)C[C@H](C(=O)N[C@@H](Cc2ccccc2)C(=O)O)NC(=O)[C@H](Cc2ccccc2)NC(=O)[C@@H](Cc2ccc(Br)cc2)NC(=O)[C@H](Cc2cccs2)NC(=O)[C@@H]1OC(C)=O` [Compound 417] ([2Thi][dPhe(4-Br)]F[dPhe(4-NH2)]F-OH; linker N-4 via Tartaroyl(2R,3R-(OAc)2)), the IC50 was above 100 µM. The figure for `CC(=O)O[C@H]1C(=O)Nc2ccc(cc2)C[C@@H](C(=O)N[C@@H](Cc2ccccc2)C(=O)O)NC(=O)[C@H](Cc2ccccc2)NC(=O)[C@@H](Cc2ccc(Br)cc2)NC(=O)[C@H](Cc2cccs2)NC(=O)[C@@H]1OC(C)=O` [Compound 418] ([2Thi][dPhe(4-Br)]F[Phe(4-NH2)]F-OH; linker N-4 via Tartaroyl(2R,3R-(OAc)2)) is above 100 µM; for `O=C(O)CCNC(=O)[C@@H]1Cc2ccc(cc2)C(=O)NCCC(=O)N[C@H](CCc2ccccc2)C(=O)N[C@@H](Cc2ccc(-c3ccccc3)cc2)C(=O)N[C@H](Cc2ccccc2)C(=O)N1` [Compound 420] ([βAla][d(hPhe)][Bip][dF][Phe(4-COOH)][βAla]-OH; lactam N-5) it is above 100 µM. As to `O=C(O)CCCNC(=O)[C@@H]1Cc2ccc(cc2)C(=O)NCCC(=O)N[C@H](CCc2ccccc2)C(=O)N[C@@H](Cc2ccc(-c3ccccc3)cc2)C(=O)N[C@H](Cc2ccccc2)C(=O)N1` [Compound 421] ([βAla][d(hPhe)][Bip][dF][Phe(4-COOH)][GABA]-OH; lactam N-5), the IC50 is below 10 µM. The figure for `O=C1CCNC(=O)c2ccc(cc2)C[C@@H](C(=O)N[C@@H](Cc2ccccc2)C(=O)O)NC(=O)[C@@H](Cc2ccccc2)NC(=O)[C@H](Cc2ccc(-c3ccccc3)cc2)NC(=O)[C@@H](CCc2ccccc2)N1` [Compound 422] ([βAla][d(hPhe)][Bip][dF][Phe(4-COOH)]F-OH; lactam N-5) is below 10 µM; for `O=C1CCNC(=O)c2ccc(cc2)C[C@@H](C(=O)N[C@H](Cc2ccccc2)C(=O)O)NC(=O)[C@@H](Cc2ccccc2)NC(=O)[C@H](Cc2ccc(-c3ccccc3)cc2)NC(=O)[C@@H](CCc2ccccc2)N1` [Compound 423] ([βAla][d(hPhe)][Bip][dF][Phe(4-COOH)][dF]-OH; lactam N-5) it is below 10 µM.
